Data reported in patent US20210052580A1 (ST IP Holding AG, priority 2018, published 2021).
≈ marks a conversion by molar mass, not a printed value. Like-named read-outs stand apart in the source and are kept apart here.

Tests used:
mouse cardiomyocytes = format: cell-based; details: NAC 100 μM
Procedure: In vitro ischemic injury was induced in mouse neonatal primary cardiomyocyte culture by oxygen-glucose deprivation for 18 hours. Cardiomyocytes were incubated with two concentrations of the compounds during 4 hours prior to the OGD induction. The test compounds were also present during the OGD insult and 24 h-recovery period. NAC was used as positive control of cardioprotection. After treatments, cell viability was measured with WST-8 and ATP, and supernatants were collected to measure LDH for studying plasma membrane integrity. Cells were simultaneously loaded with two fluorescent dyes showing optical compatibility, and were then analyzed with BD Pathway 855 (Becton Dickinson). By using the technology of HCS, cell parameters associated with nuclear morphology and caspase 3/7 activation (indicative of pre-lethal cytotoxic effects and representative of different mechanism of toxicity) were measured at the single cells level, which allows high-throughput screening. Data were expressed as means±SD of three separate wells and individual comparisons were made with Student's test (SigmaPlot 9.0 program).
Primary cultures of cardiomyocytes were prepared from the hearts of Swiss mouse neonates P0-P2. Hearts were removed and enzymatically dissociated following instructions from Neonatal heart Dissociation Kit of Miltenyi Biotec. Then cardiomyocytes were isolated following also the instructions of Miltenyi biotec. Briefly, cells were isolated by depletion of non-target cells. Non-target cells (fibroblasts and endothelial cells) are directly magnetically labeled with a cocktail of monoclonal antibodies conjugated with MACS microbeads. The magnetically labeled non-target cells were depleted by retaining them within an MCS column in the magnetic fields of a MACS separator, while the unlabeled cardiomyocytes passed through the column. Then, cardiomyocytes were counted and plated on fibronectin-coated wells with cardiac myocyte complete medium (1% CMGS component, 1% penicillin/streplomycina and 5% FBS).
Cardiomyocytes from P0-P2 days mice were plated in fibronectin coated 96-well plates with a number of 30.000 cells per well. Cells were maintained in cardiac myocyte complete medium (Cardiac myocyte medium, growth factors, 5% FBS, 1% penicillin/streptomycin) for 1 day at 37° C. in a humidified 5% CO2 atmosphere. At day 2, cells were washed and treated with compounds in complete medium 4 h prior to being subjected to oxygen glucose deprivation for 18 hours at 37° C. The cultures were placed in an aerobic chamber (Billops-Rothenberg) and incubated with DMEM medium lacking glucose and growth factors, and aerated with an anaerobic gas mix (94.7% N2, 5% CO2, 0.3% O2) to remove residual oxygen. Control cells were kept in the original cardiac myocyte medium but under anaerobic conditions. At the end of the OGD insult the cells were removed from the anaerobic chamber, the OGD medium was replaced with cardiac myocyte medium containing glucose without growth factors, and the cells were incubated for additional 24 h. The test compounds were also present during the OGD insult and the recovery period. Some cells were treated as described above with NAC 100 μM as positive control of cardioprotection.
(§1) To determine the integrity of the plasma membrane, supernatants were collected 24 h after treatments and LDH assay was performed following manufacturer's instructions.
(§2) Cell number was determined by hoechst 33342 nucleic acid staining. This dye allows a sensitive cell number determination by fluorescence microscopy. Cells were stained with 5 μg/ml, washed 3 times and measured at 380 nm/460 nm Ex/Em.
Caspase 3/7 activation was determined using The CellEvent® Caspase-3n Green Detection Reagent which is intrinsically a non-fluorescent peptide that inhibits the ability of the dye to bind to DNA. However, after […] activation in apoptotic cells, the peptide is cleaved allowing the dye to bind to DNA producing a bright, fluorogenic response. […]

[1] = test system: primary human gingival epithelial cells (HGEPp); experiment: TACS MTT cell viability assay, H2O2-induced oxidative stress; format: cell-based
Procedure: Pooled primary HGEPps were propagated in CnT-Prime epithelial culture medium provided by CellnTec on 100 mm petri dishes coated with 30 mg/ml Type I rat tail collagen (BD Biosciences) diluted in Dulbecco's phosphate-buffered saline (DPBS). […] The cells were harvested when they reached 70-90% confluency as observed by light microscopy. For routine cultivation, the medium was changed every 3 days. For both the cell viability and ROS assays, the cells from passages 3-7 were seeded at 5×10 3, 2.5×10 4, 5×10^4 cells/cm 2 density to grow cell monolayers in 24-well flat-bottomed tissue culture plates and acclimated overnight at 37° C.
Preparation of Dosing Solutions • 1. Recrystallized oltipraz was received as a powder from Supportive Therapeutics and a 100 mM DMSO stock was prepared. Further dilutions were prepared in DMSO from the 100 mM DMSO stock and each DMSO dilution was then added into 10 mL of Dulbecco's phosphate-buffered saline to arrive at final concentrations of 10, 50, and 100 μM. • 2. The Normal (Control) group contained saline with the same percentage of DMSO as the treated group. • 3. All dosing solutions contained 0.3% of DMSO which is well below the maximum tolerated DMSO percent of 0.8% for HGEPp cells. • 4. Formulated oltipraz crystals and control powder were received as a powder and a 500 mM DMSO stock solution was prepared for each powder. • 5.
Cell Survival Assay (TACS MTT Kit) • 1. Plate cell concentration was selected to be 6.25×10^5/ml to yield an OD absorbance within the linear portion of the control curve. • 2. Once the HGEPp cells were cultured and ready on the microplate, the media was removed from all the wells and discarded. The cells were washed gently with DPBS 2-3 times and the last wash removed and discarded. • 3. Added 10 ul of MTT reagent to each well. • 4. Incubated the plate for 6 hours at 37° C. Viewed the cells to confirm the appearance of intracellular precipitate using an inverted microscope. • 5. Added 100 ul of Detergent Reagent to all wells, including the control wells taking care not to shake the plates • 6. Left the plate covered in the dark at room temperature overnight. • 7. Removed the plate cover and measured the absorbance of the wells, including the blanks at 570 nm. • 8. Determined the average values from triplicate readings after subtracting the average value for the blanks.
HGEPp cells were exposed to different concentrations of H2O2 for 4 h to examine H2O2-induced oxidative stress. The cells were exposed to 0-0.6 mM H2O2 for 4 h and cell viability was evaluated using the TACS MTT Cell Proliferation Assay Kit. The percentage of cell survival was determined using the ratio of the optical density (OD) of the test sample to the OD of the control×100%. […] The data is mean+/−SD of 3 experiments in 6 replicate wells.
Normal control cells were cultured in DPBS containing 0.3% DMSO. Positive Control (PC): oxidative stressed group cells after treatment with 0.3 mM H2O2 for 4 h. […] The percentage of cell survival was determined by the ratio of the optical density (OD) of the test samples to the OD of the control×100%.
Pooled primary HGEPp's were propagated in CnT-Prime epithelial culture medium provided by CellnTec on 100 mm petri dishes coated with 30 mg/ml Type I rat tail collagen (BD Biosciences) diluted in Dulbecco's phosphate-buffered saline (DPBS). […] The cells were harvested when they reached 70-90% confluency as observed by light microscopy. For routine cultivation, the medium was changed every 3 days.

rat cortical neurons = format: cell-based; details: MK801 10 μM
Procedure: The objective of the experiments in this Example was to explore the protective effects of three compounds in the neurotoxicity induced by oxygen glucose deprivation. A multiparametric cell-based protocol is used in this Example in order to determine the mechanisms of action. The assay was applied to “freshly isolated” rat cortical neurons cultured in 96-well-plates and exposed to the compounds at 100 μg/ml. Moreover, some cells were treated with the compounds in addition with atovaquone (100 μg/ml).
In vitro ischemic injury was induced in rat primary neuronal culture by oxygen-glucose deprivation for 2 hours. Neurons were incubated with the compounds during 1 hour eighteen hours prior to the OGD induction. MK801 10 μM was used as positive neuroprotection control. After the treatments, supernatants were collected for measuring extracellular LDH levels (plasma membrane integrity determination) and cells were simultaneously incubated with three optically compatible fluorescent dyes, and subsequently analyzed with BD Pathway 855 (Becton Dickinson). Cell parameters associated with nuclear morphology, mitochondrial damage and caspase 3/7 activation-indicative of prelethal cytotoxic effects and representative of different mechanism of toxicity-were measured by HCS at single cell level. Finally, cells were fixed and stained with beta III tubulin antibody for measuring the neurite outgrowth.
Primary cultures of cortical neurons were isolated from cerebral cortices of Sprague-Dawley rat foetuses at embryonic day 18. Brains were removed and after removing the meninges, the tissues were dissected under a binocular microscope. Neurons were enzymatically dispersed by trypsin 0.2% and DNAse […] digestion for 10 min at 37° C., plated in poly-L-lysine wells and incubated with B27 supplemented neurobasal medium.
Cortical neurons of 18 days old embryonic rats were plated in poly-l-lysine coated 96-well plates (30.000 cells per well). Cells were maintained in neurobasal medium supplemented with B-27 component for 5 days at 37° C. in a humidified 5% CO2 atmosphere. At day 5, cells were subjected to oxygen glucose deprivation (OGD) for 2 hours at 37° C. The cultures were placed in an aerobic chamber (Billops-Rothenberg) and incubated in neurobasal medium lacking glucose and B27 factor, and aerated with an anaerobic gas mixture (94.7% N2, 5% CO2, 0.3% O2) to remove residual oxygen. Control cultures were kept in the original neurobasal medium but were submitted to the anaerobic conditions. At the end of the OGD conditions, the cells were removed from the anaerobic chamber, the OGD medium was replaced with neurobasal medium containing glucose, and the cells were incubated for an additional 24 h. The test compounds were added to the neurons eighteen hours prior to the OGD induction and maintained for 1 h. Replicate cultures were treated as described above with MK801 as positive control of neuroprotection.
Compound neuroprotective potential was determined by HCS analysis, which included the following endpoints: plasma membrane integrity, cell viability, alterations of mitochondrial membrane potential, caspase 3/7 activation and neurite outgrowth.
as §1, §2
Mitochondrial activity was determined using TMRM, a lipophilic cationic fluorescent probe that freely crosses the plasma membrane and accumulates within mitochondria, depending on their membrane potential. Cells were stained with 50 nM tetramethyl rhodamine methyl ester-TMRM, washed 3 times and measured at 555 nm/645 nm Ex/Em. TMRM fluorescence intensity in cytosolic regions around the nucleus was registered. […]

[2] = test system: primary human gingival epithelial cells (HGEPp); experiment: OxiSelect intracellular ROS assay, H2O2-treated cells; format: cell-based
Description: 2. measure the effect of recrystallized oltipraz and formulated oltipraz on hydroxyl, peroxyl and other reactive oxygen species within HGEPp cells, using Cell Biolabs' OxiSelect™ Intracellular ROS Assay Kit. This assay employs the cell-permeable fluorogenic probe 2′,7′-dichlorodihydrofluorescin diacetate (DCFH-DA) which diffuses into cells and is deacetylated by cellular esterases to a nonfluorescent DCFH which is then rapidly oxidized to highly fluorescent 2′,7′-dichlorodihydrofluorescein (DCF) by ROS.
Prepared and mixed all reagents thoroughly before use. […] Once the HGEPp cells were cultured and ready on a microplate, the media was removed from all the wells and discarded. Washed the cells gently with DPBS 2-3 times. Removed the last wash and discarded it. • 3. Added 100 μL of 1×DCFH-DA/media solution to the cells. […] Fluorescence was read on a Fluorescence Plate Reader after 1 hour. […] Transferred 150 μL of the mixture to a fresh 24-well plate for fluorescence measurements at 530 nm. […]
Intracellular ROS was measured using a Spectramax M3 microplate reader.
Prepared and mixed all reagents thoroughly before use. […] Once the HGEPp cells were cultured and ready on a microplate, the media was removed from all the wells and discarded. […] Transferred 150 μL of the mixture to a fresh 24-well plate for fluorescence measurements at 530 nm.
Intracellular ROS was measured using a Spectramax M3 microplate reader. […]

physchem = details: 20 °C, thermodynamic from solid
[3] = test system: male Syrian Golden Hamsters
Procedure: Twenty-four (24) male Syrian Golden Hamsters were used in the study. Mucositis was induced by giving an acute radiation dose of 40 Gy directed to the left buccal cheek pouch on Day 0. Mucositis was evaluated clinically starting on Day 6 and continuing on alternate days until Day 28.
Mucositis was scored visually by comparison to a validated photographic scale, ranging from 0 for normal, to 5 for severe ulceration (clinical scoring). In descriptive terms, this scale is defined as described in Table 7 below: […]
A mucositis score of 3 or greater indicates ulcerative mucositis, a clinically significant threshold.
Statistical significance of observed differences was calculated using chi-squared analysis.
An analysis of the severity of mucositis was performed using the Mann-Whitney rank sum analysis to compare the visual mucositis scores for Groups 2 and 3 to the vehicle control group (Group 1) on each day of the analysis. In this analysis, 2 consecutive days of significant reduction in the mucositis score are generally required before it is regarded as clinically meaningful.
The significance of group differences observed in daily mucositis scores was determined using the Mann-Whitney rank sum test. This nonparametric statistic is appropriate for the visual mucositis scoring scale. The p-values for each calculation are shown. “x” denotes significant difference in mucositis scores. “y” denotes increase in comparison to vehicle Group (improvement). “z” denotes decrease.
“y” denotes an increase in comparison to vehicle Group, “z” denotes decrease (improvement).

[4] = Examples 10, 11, 12.5-800 μg/mL, procedure of Example 9
[5] = entire study duration, of 192 animal days

With `CC(=O)N[C@@H](CS)C(=O)O` [NAC] the “normalization of OGD-induced LDH release” value (mouse cardiomyocytes) was 26%, the “prevention of OGD-induced apoptosis (caspase 3/7)” value (mouse cardiomyocytes) was 31% and the “protection against OGD-induced reduction in ATP levels” value (mouse cardiomyocytes) was 21%. For the same compound, the “prevention of OGD-induced mortality (cell number)” value (mouse cardiomyocytes; 24 h after exposure) was 21%, the ATP score (mouse cardiomyocytes; Table 18) was 1 (1 (variation 20-40%)) and the CASPASE score (mouse cardiomyocytes; Table 18) was 1 (1 (variation 20-40%)). For the same compound, the “HOECHST score (cell number)” value (mouse cardiomyocytes; Table 18) was 1 (1 (variation 20-40%)), the LDH score (mouse cardiomyocytes; Table 18) was 1 (1 (variation 20-40%)) and the Neuroprotection degree (mouse cardiomyocytes; Table 18) was “Moderate”. The “Total (sum of individual scores)” value (mouse cardiomyocytes; Table 18) was 4.
With `OO` [H2O2, hydrogen peroxide] the “reduction in cell number” value ([1]; 0.3 mM H2O2, 4 h) was 48%.
With `C[C@]12N[C@H](Cc3ccccc31)c1ccccc12` [MK801] the “normalization of plasma membrane integrity (LDH release)” value (rat cortical neurons) was 33%, the “prevention of OGD-induced apoptosis (caspase 3/7 activation)” value (rat cortical neurons; 24 h after OGD) was 25% and the “prevention of OGD-induced mortality (cell number, hoechst 33342)” value (rat cortical neurons; 24 h after OGD) was 26%. The “re-establishment of mitochondrial membrane potential (TMRM)” value (rat cortical neurons; 24 hours post-exposure) was 13%, the “re-establishment of neurite outgrowth affected by OGD” value (rat cortical neurons; average length, beta III tubulin) was 94% and the CASPASE score (rat cortical neurons; Table 16) was 1 (1 (variation 20-40%)). For the same compound, the “HOECHST score (cell number)” value (rat cortical neurons; Table 16) was 1 (1 (variation 20-40%)), the LDH score (rat cortical neurons; Table 16) was 1 (1 (variation 20-40%)) and the Neurite score (rat cortical neurons; Table 16) was 3 (3 (variation 60-100%)). The Neuroprotection degree (rat cortical neurons; Table 16) was “moderate (moderate (5-7))”, the TMRM score (rat cortical neurons; Table 16) was 0 (0 (no neuroprotection or variation lower than 20%)) and the “Total (sum of individual scores)” value (rat cortical neurons; Table 16) was 6.
With `COc1ccc2cc3[n+](cc2c1OC)CCc1cc2c(cc1-3)OCO2` [Berberine] the “effect on proliferation/survival of H2O2-induced oxidatively stressed HGEPp cells” value (from here on “effect on proliferation/survival”) [1, 4] was “little or no impact”.
With `O=C1C(O)=C([C@H]2CC[C@H](c3ccc(Cl)cc3)CC2)C(=O)c2ccccc21` [Atovaquone, trans-2-[4-(4-chlorophenyl)cyclohexyl]-3-hydroxy-1,4-naphthalenedione] the “effect on proliferation/survival” value ([1]; Example 9, all doses tested 12.5-800 μg/mL (each), 24 hr pretreatment, 0.3 mM H2O2 4 h) was “no impact” and the “effect on ROS levels in H2O2 challenged HGEPp cells” value ([2]; Example 9, 50, 100, 200 μg/mL, 24 hr pretreatment) was “does not change ROS levels”.
In the case of `CN(C)C(=N)N=C(N)N` [Metformin], the “effect on proliferation/survival” value [1, 4] is reported as “little or no impact”.
In the case of `Cc1c(-c2cnccn2)ssc1=S` [Neat oltipraz, 4-methyl-5-(pyrazin-2-yl)-3H-1,2-dithiole-3-thione], the “effect on H2O2-induced decrease in HGEPp survival” value ([1]; Example 7, 50 to 800 μg/ml, 24 h pretreatment, then 0.3 mM H2O2 4 h) is reported as “promoted cell proliferation and reduced H2O2-induced decrease in HGEPp survival”, the solubility (physchem; 2% simulated intestinal fluid, fassgf or other biorelevant) is reported as 15.8 µg/mL (≈ 69.8 µM) and the solubility (physchem; water) is reported as 3.1 µg/mL (≈ 13.7 µM). The “day of peak mean mucositis score” value ([3]; 40 Gy Day 0, 5 mg/mL, 0.2 mL topical BID, Days −3 to 28) was 16 days, the “peak mean mucositis score” value ([3]; 40 Gy Day 0, 5 mg/mL, 0.2 mL topical to left cheek pouch BID, Days −3 to 28) was 3.25±0.11 and the “Percent Ulceration by Day (Score ≥3)” value ([3]; Day 6) was 0.0%. The “Percent Ulceration by Day (Score ≥3)” value ([3]; Day 8) was 0.0%, the “Percent Ulceration by Day (Score ≥3)” value ([3]; Day 10) was 0.0% and the “Percent Ulceration by Day (Score ≥3)” value ([3]; Day 12) was 50.0%. For the same compound, the “Percent Ulceration by Day (Score ≥3)” value ([3]; Day 14) was 100.0%, the “Percent Ulceration by Day (Score ≥3)” value ([3]; Day 16) was 100.0% and the “Percent Ulceration by Day (Score ≥3)” value ([3]; Day 18) was 100.0%. For the same compound, the “Percent Ulceration by Day (Score ≥3)” value ([3]; Day 20) was 100.0%, the “Percent Ulceration by Day (Score ≥3)” value ([3]; Day 22) was 100.0% and the “Percent Ulceration by Day (Score ≥3)” value ([3]; Day 24) was 50.0%. The “Percent Ulceration by Day (Score ≥3)” value ([3]; Day 26) was 25.0%, the “Percent Ulceration by Day (Score ≥3)” value ([3]; Day 28) was 25.0% and the “% Days ≥3” value ([3]; entire study duration) was 54.17%. The “Days <3 (animal days with mucositis score <3)” value [3, 5] was 88, the “Days ≥3 (animal days with mucositis score ≥3)” value [3, 5] was 104 and the “effect on ROS levels in H2O2 treated HGEPp cells” value ([2]; Example 7, 100 ug/ml and 200 ug/ml, 24 h pretreatment, P<0.05 versus PC) was “significantly reduced ROS levels”.
